According to patent US11613531B2, “Inhibitors of RHO associated coiled-coil containing protein kinase” (Kadmon Corporation, LLC, priority 2017, dated 2023):

How the values were obtained:
[1] = tested on: UUO-induced renal fibrosis in mice; assay: Unilateral ureteral obstruction (UUO)-induced renal fibrosis model; type: in vivo; settings: oral 3 mg/kg BID, 6 mg/kg BID and 10 mg/kg QD, Day 10, Masson's trichrome
Text: FIG. 11a. ROCK inhibitor is active in a mouse model of renal fibrosis. Representative images of kidney sections stained with Masson's trichrome to visualize collagen and fibrosis in mice treated with ROCK inhibitor in the ureteral obstruction (UUO) induced renal fibrosis mouse model.
FIG. 11b. Quantitation of the decrease in the interstitial fibrosis index in the histopathological analysis of the images from ROCK inhibitor and vehicle treated mice in the UUO induced renal fibrosis mouse model.
Unilateral Ureteral Obstruction (UUO)-Induced Renal Fibrosis Model in Mice
Male C57B/L6 mice were anesthetized with Isoflurane and placed in dorsal recumbency and the abdominal region was shaved and prepared for surgery with alternating scrub wipes of iodine or chlorhexidine scrub and 70% isopropyl alcohol. […] All animals were monitored closely for 3 days. […]
To assess the activity of ROCK inhibitors in modulation of additional organ fibrosis in an in vivo setting, ROCK inhibitor was tested in a UUO model of renal fibrosis. […] The animals were sacrificed on Day 10 following surgery and the extent of fibrosis was determined by histopathological analysis of fixed kidney sections stained with Masson's trichrome. […]
The improvement in the kidney fibrosis following UUO was quantitated based on the individual image scores by a pathologist blinded to the group assignments. […]

[2] = tested on: phosphorylation of ROCK targets MLC and MYPT1 in A7R5 cells; assay: Western blot of A7R5 cell lysates (ppMlc, MYPT1); type: cell-based, Rat; settings: 110 nM, 90 min
Method: FIG. 1c. Western blot of A7R5 cell lysates to visualize ppMlc (T18/S19) levels following treatment with the compound of Example 192 (“Example 192”) for 90 min. A7R5 cells were treated with the compound and ppMlc (T18/S19) levels were visualized by western blotting.
A7R5 cells were treated with the compound of Example 192 for 90 min and ppMlc (T18/S19) levels were visualized by western blotting.

[3] = tested on: Bleomycin induced lung fibrosis in mice; assay: Prophylactic bleomycin induced lung fibrosis model; type: in vivo; settings: 21-day treatment
Text: FIG. 9a. ROCK inhibitor is active in a mouse model of pulmonary fibrosis. Representative images of lung sections stained with Masson's trichrome to visualized fibrosis in the lungs of mice following 21-day treatment with ROCK inhibitor in the bleomycin-induced lung injury model.
FIG. 9b. […] Ashcroft fibrotic indices, α-smooth muscle actin (αSMA) percentage positive area and total leukocytes count in bronchoalveolar lavage fluid obtained from lungs of mice in the bleomycin lung fibrosis model treated with compound of Example 192.
Prophylactic Efficacy of Compounds in Bleomycin Induced Lung Fibrosis in Mice
Male C57B/L6 mice were ear tagged and weighed prior to the start of the study. Treatment group animals were treated with the compound on day −1 pre-bleomycin and all subsequent days post-bleomycin administration. On day 0, animals in disease groups received 1.5 U/kg dose of bleomycin via oropharyngeal route. […] Animals were closely monitored daily till the end of the study. […] Blood samples were used for plasma preparation; total leukocytes were counted in BAL fluid; and lungs were fixed in 10% neutral buffered formalin for histopathological analysis.
Based on the strong anti-fibrotic cellular activity of ROCK inhibitors of this invention, the ability of such inhibitors to attenuate fibrosis in the in vivo setting was assessed in several mouse models of disease. […]

Clc1cnc(N2C3CCC2CNC3)nc1Nc1ccc2[nH]ncc2c1 [Example 192, N-(2-(3,8-diazabicyclo[3.2.1]octan-8-yl)-5-chloropyrimidin-4-yl)-1H-indazol-5-amine]
amount of interstitial collagen in the obstructed kidney [1]: significantly lower
phosphorylation of ROCK targets MLC and MYPT1 [2]: efficiently blocked
activity in bleomycin lung fibrosis model (Ashcroft fibrotic indices, αSMA percentage positive area, total leukocytes count in BAL fluid) [3]: positive activity
